The values below are quoted from earlier work in patent US20060104967A1, “Method of converting the state of proteins” (priority 2004, published 2006).

*1 amine or outer side, *2 acyl side, *3 side chain or, on linkers, in order; H or OH if unused. Where a SMILES comes first, the peptide text is derived from it. Bridges are numbered along the chain shown (N, C = ends). [ ]: non-standard residue; d: D form. Adda = CO[C@@H](Cc1ccccc1)[C@@H](C)/C=C(C)/C=C/[C@H](N[*:1])[C@H](C)C(=O)[*:2]; dAsp(3S-Me) = C[C@H](C(=O)[*:3])[C@@H](N[*:1])C(=O)[*:2]; d(γGlu) = O=C(O)[C@@H](CCC(=O)[*:2])N[*:1]; NMeDha = C=C(NC)C(=O)O

The series concerns the target PP2B. The following applies: read-out: Ki values for PP2B, concentrations of inhibitors where the enzyme activity becomes to half.

Consider `C=C1[C@@H](O)[C@@H]2O[C@]3(CC[C@H](/C=C/[C@@H](C)[C@@H]4CC(C)=C[C@@]5(O[C@H](C[C@@](C)(O)C(=O)O)CC[C@H]5O)O4)O3)CC[C@H]2O[C@@H]1[C@@H](O)C[C@H](C)[C@H]1O[C@@]2(CCCCO2)CC[C@H]1C` [okadaic acid], for which the Ki was 5 mM. For `C=C1C(=O)N[C@H](C)C(=O)N[C@@H](CC(C)C)C(=O)N[C@@H](C(=O)O)[C@H](C)C(=O)N[C@@H](CCCNC(=N)N)C(=O)N[C@@H](/C=C/C(C)=C/[C@H](C)[C@H](Cc2ccccc2)OC)[C@H](C)C(=O)N[C@@H](C(=O)O)CCC(=O)N1C` [microcystin LR] (R[Adda][d(γGlu)][NMeDha][dA]L[dAsp(3S-Me)]-OH; lactam N-7), the Ki is 0.2 mM.
